The values below come from patent US20240190880A1 (THE REGENTS OF THE UNIVERSITY OF MICHIGAN, priority 2021, published 2024).

The first experiment deals with T1, ER (Homo sapiens, UniProt P03372).
T1 construct: host or cells: T47D and MCF7 human breast cancer cells
T1 sequence (P03372 1-595): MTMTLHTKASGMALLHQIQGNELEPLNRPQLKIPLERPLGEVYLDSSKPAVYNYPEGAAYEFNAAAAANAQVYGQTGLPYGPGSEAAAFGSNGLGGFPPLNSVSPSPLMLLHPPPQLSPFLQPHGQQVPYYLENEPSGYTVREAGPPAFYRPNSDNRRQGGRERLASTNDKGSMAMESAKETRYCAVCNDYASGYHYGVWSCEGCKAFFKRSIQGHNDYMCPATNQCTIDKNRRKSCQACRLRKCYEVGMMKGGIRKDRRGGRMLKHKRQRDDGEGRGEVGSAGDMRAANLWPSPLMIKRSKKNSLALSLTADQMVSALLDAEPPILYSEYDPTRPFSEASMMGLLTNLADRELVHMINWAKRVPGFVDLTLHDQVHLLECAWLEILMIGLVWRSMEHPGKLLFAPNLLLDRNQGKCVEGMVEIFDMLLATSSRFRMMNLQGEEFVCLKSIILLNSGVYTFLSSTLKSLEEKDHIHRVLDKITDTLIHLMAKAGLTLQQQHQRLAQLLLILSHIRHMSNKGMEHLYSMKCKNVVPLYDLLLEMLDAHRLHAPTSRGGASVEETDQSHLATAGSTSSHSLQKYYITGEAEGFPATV
The experiment is described as follows: ER degradation activity, in-cell western blot analysis in T47D cells. The format is cell-based. The following applies: 16 hours, Table A does not say which cell line (T47D or MCF7), read-out: Potency (DC50). A digest of the protocol: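 Cells were seeded overnight, exposed to diluted compounds for 16 hours, then stained with primary antibodies and with infrared-labelled secondary antibodies (1:1000, 1 h RT). Plates were scanned on a CLX reader, and ER levels were normalised to DMSO-treated wells.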
The DC50 is the concentration giving 50% degradation. On to `C[C@@H]1Cc2c([nH]c3ccccc23)[C@@H](c2c(F)cc(N3CCC(CN4CCC5(CCC(N6Cc7cc8c(cc7C6)C(=O)N(C6CCC(=O)NC6=O)C8=O)C5)CC4)CC3)cc2F)N1CC(F)F` (stereo partly drawn) [E 133, 6-(8-((1-(4-((1R,3R)-2-(2,2-difluoroethyl)-3-methyl-2,3,4,9-tetrahydro-1H-pyrido[3,4-b]indol-1-yl)-3,5-difluorophenyl)piperidin-4-yl)methyl)-8-azaspiro[4.5]decan-2-yl)-2-(2,6-dioxopiperidin-3-yl)-6,7-dihydropyrrolo[3,4-f]isoindole-1,3(2H,5H)-dione], for which the DC50 lay in the range of 10 to 100 nM. Still for that read-out and setting: to `C[C@@H]1Cc2c([nH]c3ccccc23)[C@@H](c2c(F)cc(N3CCC(C(=O)N4CCC(N5Cc6cc7c(cc6C5)C(=O)N(C5CCC(=O)NC5=O)C7=O)CC4)CC3)cc2F)N1CC(F)F` (stereo partly drawn) [E 114, 6-(1-(1-(4-((1R,3R)-2-(2,2-difluoroethyl)-3-methyl-2,3,4,9-tetrahydro-1H-pyrido[3,4-b]indol-1-yl)-3,5-difluorophenyl)piperidine-4-carbonyl)piperidin-4-yl)-2-(2,6-dioxopiperidin-3-yl)-6,7-dihydropyrrolo[3,4-f]isoindole-1,3(2H,5H)-dione] belongs less than 10 nM.

For the compound `C[C@@H]1Cc2c([nH]c3ccccc23)[C@@H](c2c(F)cc(C3CCC(CN4CCC(N5Cc6cc7c(cc6C5)C(=O)N(C5CCC(=O)NC5=O)C7)CC4)CC3)cc2F)N1CC(F)F` (stereo partly drawn) [E 308, 3-(6-(1-((4-(4-((1R,3R)-2-(2,2-difluoroethyl)-3-methyl-2,3,4,9-tetrahydro-1H-pyrido[3,4-b]indol-1-yl)-3,5-difluorophenyl)cyclohexyl)methyl)piperidin-4-yl)-1-oxo-3,5,6,7-tetrahydropyrrolo[3,4-f]isoindol-2(1H)-yl)piperidine-2,6-dione], the DC50 lay in the range of 10 to 100 nM. Regarding `O=C1CCC(N2C(=O)c3cc4c(cc3C2=O)CN(CC(=O)N2CCC3(CC2)CCN(c2ccc([C@@H]5c6ccc(O)cc6CC[C@@H]5c5ccccc5)cc2)CC3)C4)C(=O)N1` (mixture of isomers) [E 20, Rac-2-(2,6-dioxopiperidin-3-yl)-6-(2-(9-(4-((1R,2S)-6-hydroxy-2-phenyl-1,2,3,4-tetrahydronaphthalen-1-yl)phenyl)-3,9-diazaspiro[5.5]undecan-3-yl)-2-oxoethyl)-6,7-dihydropyrrolo[3,4-f]isoindole-1,3(2H,5H)-dione], the DC50 fell in the range of 10 to 100 nM. `C[C@@H]1Cc2c([nH]c3ccccc23)[C@@H](c2c(F)cc(N3CCC(N4Cc5cc6c(cc5C4)C(=O)N(C4CCC(=O)NC4=O)C6=O)CC3)cc2F)N1CC(F)F` (stereo partly drawn) [E 88, 6-(1-(4-((1R,3R)-2-(2,2-difluoroethyl)-3-methyl-2,3,4,9-tetrahydro-1H-pyrido[3,4-b]indol-1-yl)-3,5-difluorophenyl)piperidin-4-yl)-2-(2,6-dioxopiperidin-3-yl)-6,7-dihydropyrrolo[3,4-f]isoindole-1,3(2H,5H)-dione]: the DC50 is greater than 100 nM. `C[C@@H]1Cc2c([nH]c3ccccc23)[C@@H](c2c(F)cc(N3CCC(CN4Cc5cc6c(cc5C4)C(=O)N(C4CCC(=O)NC4=O)C6)CC3)cc2F)N1CC(F)F` (stereo partly drawn) [E 147, 3-(6-((1-(4-((1R,3R)-2-(2,2-difluoroethyl)-3-methyl-2,3,4,9-tetrahydro-1H-pyrido[3,4-b]indol-1-yl)-3,5-difluorophenyl)piperidin-4-yl)methyl)-1-oxo-3,5,6,7-tetrahydropyrrolo[3,4-f]isoindol-2(1H)-yl)piperidine-2,6-dione]: the DC50 was greater than 100 nM. The same measure, in the same setting: to `C[C@@H]1Cc2c([nH]c3ccccc23)[C@@H](c2c(F)cc(N3CCC4(CCN(CC(=O)N5Cc6cc7c(cc6C5)C(=O)N(C5CCC(=O)NC5=O)C7=O)C4)C3)cc2F)N1CC(F)F` (stereo partly drawn) [E 76, 6-(2-(7-(4-((1R,3R)-2-(2,2-difluoroethyl)-3-methyl-2,3,4,9-tetrahydro-1H-pyrido[3,4-b]indol-1-yl)-3,5-difluorophenyl)-2,7-diazaspiro[4.4]nonan-2-yl)acetyl)-2-(2,6-dioxopiperidin-3-yl)-6,7-dihydropyrrolo[3,4-f]isoindole-1,3(2H,5H)-dione] belongs greater than 100 nM; to `C[C@@H]1Cc2c([nH]c3ccccc23)[C@@H](c2c(F)cc(N3CCC(CN4CCCC(N5Cc6cc7c(cc6C5)C(=O)N(C5CCC(=O)NC5=O)C7=O)CC4)CC3)cc2F)N1CC(F)F` (stereo partly drawn) [E 130, 6-(1-((1-(4-((1R,3R)-2-(2,2-difluoroethyl)-3-methyl-2,3,4,9-tetrahydro-1H-pyrido[3,4-b]indol-1-yl)-3,5-difluorophenyl)piperidin-4-yl)methyl)azepan-4-yl)-2-(2,6-dioxopiperidin-3-yl)-6,7-dihydropyrrolo[3,4-f]isoindole-1,3(2H,5H)-dione], less than 10 nM; to `C[C@@H]1Cc2cc(O)ccc2[C@@H](c2c(F)cc(N3CCN(C(=O)[C@H]4CC[C@@H](N5Cc6cc7c(cc6C5)C(=O)N(C5CCC(=O)NC5=O)C7=O)CC4)CC3)cc2F)N1CC(F)F` (mixture of isomers) [E 352, Rac-6-((1R,4s)-4-(4-(4-((1S,3R)-2-(2,2-difluoroethyl)-6-hydroxy-3-methyl-1,2,3,4-tetrahydroisoquinolin-1-yl)-3,5-difluorophenyl)piperazine-1-carbonyl)cyclohexyl)-2-(2,6-dioxopiperidin-3-yl)-6,7-dihydropyrrolo[3,4-f]isoindole-1,3(2H,5H)-dione], greater than 100 nM. Still for that read-out and setting: to `O=C1CCC(N2C(=O)c3cc4c(cc3C2=O)CN(CC(=O)N2CCC3(CC2)CN(c2ccc([C@@H]5c6ccc(O)cc6CC[C@@H]5c5ccc(F)cc5Cl)cc2)C3)C4)C(=O)N1` (mixture of isomers) [E 11, rac-6-(2-(2-(4-((1R,2S)-2-(2-chloro-4-fluorophenyl)-6-hydroxy-1,2,3,4-tetrahydronaphthalen-1-yl)phenyl)-2,7-diazaspiro[3.5]nonan-7-yl)-2-oxoethyl)-2-(2,6-dioxopiperidin-3-yl)-6,7-dihydropyrrolo[3,4-f]isoindole-1,3(2H,5H)-dione] belongs 10 to 100 nM; to `O=C1CCC(N2C(=O)c3cc4c(cc3C2=O)CN(CC(=O)N2CCC(Oc3ccc([C@@H]5c6ccc(O)cc6CC[C@@H]5c5ccccc5)cc3)CC2)C4)C(=O)N1` (stereo partly drawn) [E 219, 2-(2,6-dioxopiperidin-3-yl)-6-(2-(4-(4-((1R,2S)-6-hydroxy-2-phenyl-1,2,3,4-tetrahydronaphthalen-1-yl)phenoxy)piperidin-1-yl)-2-oxoethyl)-6,7-dihydropyrrolo[3,4-f]isoindole-1,3(2H,5H)-dione], greater than 100 nM; to `O=C1CCC(N2C(=O)c3cc4c(cc3C2=O)CN(C(=O)[C@H]2CC[C@H](CN3CC(Oc5ccc([C@@H]6c7ccc(O)cc7CC[C@@H]6c6ccccc6)cc5)C3)CC2)C4)C(=O)N1` (stereo partly drawn) [E 310, 2-(2,6-dioxopiperidin-3-yl)-6-((1R,4r)-4-((3-(4-((1R,2S)-6-hydroxy-2-phenyl-1,2,3,4-tetrahydronaphthalen-1-yl)phenoxy)azetidin-1-yl)methyl)cyclohexane-1-carbonyl)-6,7-dihydropyrrolo[3,4-f]isoindole-1,3(2H,5H)-dione], greater than 100 nM. The same measure, in the same setting: the same measure for `C[C@@H]1Cc2c([nH]c3ccccc23)[C@@H](c2c(F)cc(N3CCC(C(=O)N4CC(N5Cc6cc7c(cc6C5)C(=O)N(C5CCC(=O)NC5=O)C7=O)C4)CC3)cc2F)N1CC(F)F` (stereo partly drawn) [E 235, 6-(1-(1-(4-((1R,3R)-2-(2,2-difluoroethyl)-3-methyl-2,3,4,9-tetrahydro-1H-pyrido[3,4-b]indol-1-yl)-3,5-difluorophenyl)piperidine-4-carbonyl)azetidin-3-yl)-2-(2,6-dioxopiperidin-3-yl)-6,7-dihydropyrrolo[3,4-f]isoindole-1,3(2H,5H)-dione]: greater than 100 nM. For the compound `C[C@@H]1Cc2c([nH]c3ccccc23)[C@@H](c2c(F)cc(N3CCC(N4CCN(C(=O)CN5Cc6cc7c(cc6C5)C(=O)N(C5CCC(=O)NC5=O)C7=O)CC4)CC3)cc2F)N1CC(F)F` (stereo partly shown) [E 109], the DC50 was less than 10 nM. Still for that read-out and setting: the same measure for `O=C1CCC(N2C(=O)c3cc4c(cc3C2=O)CN(C(=O)CN2CCC3(CC2)CN(c2ccc([C@@H]5c6ccc(O)cc6CC[C@@H]5c5ccccc5)cc2)C3)C4)C(=O)N1` (mixture of isomers) [E 150, Rac-2-(2,6-dioxopiperidin-3-yl)-6-(2-(2-(4-((1R,2S)-6-hydroxy-2-phenyl-1,2,3,4-tetrahydronaphthalen-1-yl)phenyl)-2,7-diazaspiro[3.5]nonan-7-yl)acetyl)-6,7-dihydropyrrolo[3,4-f]isoindole-1,3(2H,5H)-dione]: greater than 100 nM.

The same experiment, now with this note: compounds 16 hours, Table A does not say whether T47D or MCF7, read-out: Potency (DC50).
With `C[C@@H]1Cc2c([nH]c3ccccc23)[C@@H](c2cnc(N3CCC4(CC3)CC(CN3Cc5cc6c(cc5C3)C(=O)N([C@H]3CCC(=O)NC3=O)C6=O)C4)nc2)N1CC(F)(F)CO` [E 512, 6-((7-(5-((1R,3R)-2-(2,2-difluoro-3-hydroxypropyl)-3-methyl-2,3,4,9-tetrahydro-1H-pyrido[3,4-b]indol-1-yl)pyrimidin-2-yl)-7-azaspiro[3.5]nonan-2-yl)methyl)-2-((S)-2,6-dioxopiperidin-3-yl)-6,7-dihydropyrrolo[3,4-f]isoindole-1,3(2H,5H)-dione], the DC50 is greater than 100 nM.
